From ChEMBL document CHEMBL1142017, “Structure-activity relationships and sub-type selectivity in an oxabicyclic estrogen receptor alpha/beta agonist scaffold” (Bioorg Med Chem Lett, 2005)

What was measured:
[1] = biological target: T1, Estrogen receptor (Rattus norvegicus) (UniProt P06211+Q62986); assay: Effect on uterine wet weight in ovariectomized female rats after 30 mg/kg oral gavage dose; type: functional, organism-based; set-up: dose 30 mg/kg
Estrogen receptor = biological target: T2, Estrogen receptor (Homo sapiens, UniProt P03372)
T2 sequence (P03372 whole entry): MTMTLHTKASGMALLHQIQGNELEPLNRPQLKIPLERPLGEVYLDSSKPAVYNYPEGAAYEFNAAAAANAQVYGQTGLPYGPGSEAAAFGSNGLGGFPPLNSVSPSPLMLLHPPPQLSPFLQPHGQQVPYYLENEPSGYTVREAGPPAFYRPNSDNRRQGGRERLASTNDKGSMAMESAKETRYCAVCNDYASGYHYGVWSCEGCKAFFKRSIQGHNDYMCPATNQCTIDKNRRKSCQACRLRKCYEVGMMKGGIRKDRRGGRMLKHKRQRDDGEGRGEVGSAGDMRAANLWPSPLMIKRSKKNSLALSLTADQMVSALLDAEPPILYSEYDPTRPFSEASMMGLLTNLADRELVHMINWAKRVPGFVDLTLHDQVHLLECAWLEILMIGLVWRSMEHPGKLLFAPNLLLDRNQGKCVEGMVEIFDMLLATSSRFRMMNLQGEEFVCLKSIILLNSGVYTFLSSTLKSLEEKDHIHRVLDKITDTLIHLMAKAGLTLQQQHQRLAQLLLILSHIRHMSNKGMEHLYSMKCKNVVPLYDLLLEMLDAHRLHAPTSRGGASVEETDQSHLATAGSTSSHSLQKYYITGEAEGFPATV
Description: In vitro agonist activity for estrogen receptor alpha expressed in COS-1 cells

Estrogen receptor beta [2] = biological target: T3, Estrogen receptor beta (Homo sapiens, UniProt Q92731)
T3 sequence (Q92731 whole entry): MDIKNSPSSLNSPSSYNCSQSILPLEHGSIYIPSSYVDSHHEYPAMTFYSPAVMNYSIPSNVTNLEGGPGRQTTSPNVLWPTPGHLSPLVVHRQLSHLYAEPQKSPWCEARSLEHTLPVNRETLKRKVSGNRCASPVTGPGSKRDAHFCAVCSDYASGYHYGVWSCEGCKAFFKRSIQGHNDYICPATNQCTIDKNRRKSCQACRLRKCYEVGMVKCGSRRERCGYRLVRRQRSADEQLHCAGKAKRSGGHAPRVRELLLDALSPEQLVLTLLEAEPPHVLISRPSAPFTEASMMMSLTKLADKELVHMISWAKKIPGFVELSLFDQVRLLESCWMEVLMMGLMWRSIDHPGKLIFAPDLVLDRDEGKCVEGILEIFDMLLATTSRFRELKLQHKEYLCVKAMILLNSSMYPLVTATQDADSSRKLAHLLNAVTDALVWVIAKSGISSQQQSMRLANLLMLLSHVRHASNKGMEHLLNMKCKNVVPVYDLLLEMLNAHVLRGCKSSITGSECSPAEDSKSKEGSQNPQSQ
Description: (§1) In vitro agonist activity for estrogen receptor beta expressed in COS-1 cells

Estrogen receptor beta [3] = biological target: T3, Estrogen receptor beta; conditions: cos-1
Description: as §1

[4] = biological target: T1, Estrogen receptor (Rattus norvegicus); assay: Effect on uterine wet weight in ovariectomized female rats; type: functional

ED50 [1] [mg/kg/day] | EC50 (Estrogen receptor) [nM] | EC50 (Estrogen receptor beta [2]) [nM] | EC50 (Estrogen receptor beta [3]) [nM] | ED50 [4] [mg/kg/day] | Structure (SMILES)
0.16 |  |  |  |  | C[C@]12CC[C@@H]3c4ccc(OS(=O)(=O)O)cc4CC[C@H]3[C@@H]1CCC2=O
 | 92 | 79 |  |  | CC1=CC[C@@]2(CO)CO[C@@H](c3ccc(O)cc3C)[C@@H]1C2 (racemic)
 | 173 | 275 |  |  | CC1=CC[C@@]2(CO)CO[C@@H](c3ccc(O)cc3O)[C@@H]1C2 (racemic)
 | 43 | 67 |  |  | CC1=CC[C@@]2(CO)CO[C@@H](c3ccc(O)cc3Cl)[C@]1(C)C2 (racemic)
 | 68 | 6 |  |  | CC1=CC[C@@]2(CO)CO[C@@H](c3ccc(O)c(F)c3)[C@]1(C)C2 (racemic)
 | 137 | 305 |  |  | CC1=CC[C@@]2(CO)CO[C@@H](c3ccc(O)c(C)c3)[C@@H]1C2 (racemic)
 | 336 | 485 |  |  | CC1=CC[C@@]2(CO)CO[C@@H](c3ccc(O)c(Br)c3)[C@@H]1C2 (racemic)
 | 11 | 5.3 |  |  | CC1=CC[C@@]2(CO)CO[C@@H](c3ccc(O)cc3Cl)[C@@H]1C2 (racemic)
 | 21 | 25 |  |  | CC1=CC(C)(C)[C@@]2(O)CO[C@@H](c3ccc(O)cc3Cl)[C@@H]1C2 (racemic)
 | 39 | 10 |  |  | CC1=CC[C@@]2(CO)CO[C@@H](c3ccc(O)cc3F)[C@@H]1C2 (racemic)
 | 2410 | 3160 |  |  | CC1=CC[C@@]2(CO)CO[C@@H](c3ccc(O)c(O)c3)[C@@H]1C2 (racemic)
 | 141 | 183 |  |  | CC1=CC(C)(C)[C@@]2(O)CO[C@@H](c3ccc(O)cc3)[C@@H]1C2 (racemic)
 | 4.6 | 25 |  |  | CC1=CC[C@@]2(CO)CO[C@@H](c3ccc(O)c(F)c3)[C@@H]1C2 (racemic)
 | 743 | 2830 |  |  | CC1=CC[C@@]2(CO)CO[C@@H](c3cc(C)c(O)c(C)c3)[C@@H]1C2 (racemic)
 | 1 | 6 |  |  | CC1=CC[C@]2(O)C[C@H]1[C@H](c1ccc(O)cc1Cl)OC2(C)C (racemic)
 | 1980 | 3050 |  |  | COc1cc([C@@H]2OC[C@]3(CO)CC=C(C)[C@H]2C3)ccc1O (racemic)
 | 1.6 | 9.2 |  |  | CC1=CC[C@]2(O)C[C@H]1[C@H](c1ccc(O)cc1)OC2(C)C (racemic)

ED50 [1] [mg/kg/day] | EC50 (Estrogen receptor) [nM] | EC50 (Estrogen receptor beta [2]) [nM] | EC50 (Estrogen receptor beta [3]) [nM] | ED50 [4] [mg/kg/day] | Structure (SMILES)
 | 203 | 39 |  |  | CC1=CC[C@@]2(CO)CO[C@@H](c3ccc(O)cc3)[C@]1(C)C2 (racemic)
 | 59 | 24 |  |  | CC1=CC[C@@]2(O)CO[C@@H](c3ccc(O)cc3)[C@@H]1C2(C)C (racemic)
 | 50 | 12 |  |  | CC1=CC[C@@]2(CO)CO[C@@H](c3ccc(O)cc3F)[C@]1(C)C2 (racemic)
 | 1.1 | 1.4 |  |  | CC1=CC[C@]2(O)C[C@H]1[C@H](c1ccc(O)cc1F)OC2(C)C (racemic)
 | 36 | 197 |  |  | CC1=CC[C@@]2(CO)CO[C@@H](c3ccc(O)c(Cl)c3)[C@@H]1C2 (racemic)
 | 218 |  | 318 |  | CC1=CC[C@@H]2C[C@H]1[C@H](c1ccc(O)c(C)c1)OC2(C)C (stereo in doubt)
 | 211 | 195 |  |  | CC1=CC[C@@H]2C[C@H]1[C@H](c1ccc(O)cc1)OC2(C)C (stereo in doubt)
 | 138 | 46 |  |  | CC1=CC[C@@]2(CO)CO[C@@H](c3ccc(O)cc3Cl)[C@@H]1C2 (stereo in doubt; (+)-25)
 | 2.6 | 40 |  |  | CC1=CC[C@@]2(CO)CO[C@@H](c3ccc(O)c(F)c3)[C@@H]1C2 (stereo in doubt; (+)-27)
 | 21 | 180 |  |  | CC1=CC[C@@]2(CO)CO[C@@H](c3ccc(O)cc3F)[C@@H]1C2 (stereo in doubt; (+)-29)
 | 203 | 418 |  |  | CC1=CC[C@@H]2C[C@H]1[C@H](c1ccc(O)cc1)OC2(C)C (stereo in doubt; (+)-31)
 | 143 | 318 |  |  | CC1=CC[C@@H]2C[C@H]1[C@H](c1ccc(O)c(C)c1)OC2(C)C (stereo in doubt; (+)-32)
 | 18 | 6.1 |  |  | CC1=CC[C@@]2(CO)CO[C@@H](c3ccc(O)cc3Cl)[C@@H]1C2 (stereo in doubt; (-)-26) [listing 1 of 2 here]
 |  |  |  | 3.44 | CC1=CC[C@@]2(CO)CO[C@@H](c3ccc(O)cc3Cl)[C@@H]1C2 (stereo in doubt; (-)-26) [listing 2 of 2 here]
 | 254 | 57 |  |  | CC1=CC[C@@]2(CO)CO[C@@H](c3ccc(O)c(F)c3)[C@@H]1C2 (stereo in doubt; (-)-28)
 | 19 | 3.1 |  |  | CC1=CC[C@@]2(CO)CO[C@@H](c3ccc(O)cc3F)[C@@H]1C2 (stereo in doubt; (-)-30)

Structure (SMILES) | ED50 [1] [mg/kg/day] | EC50 (Estrogen receptor) [nM] | EC50 (Estrogen receptor beta [2]) [nM] | EC50 (Estrogen receptor beta [3]) [nM] | ED50 [4] [mg/kg/day]
CC1=CC[C@]2(O)C[C@H]1[C@H](c1ccc(O)c(F)c1)OC2(C)C (racemic) |  | 0.6 | 7.2 |  | 
